In patent publication US20250101052A1, “COMPOUND FOR EGFR KINASE INHIBITOR, COMPOSITION, AND USE THEREOF” (INNOVATION INSTITUTE FOR ARTIFICIAL INTELLIGENCE IN …, priority 2021, published 2025):

Columns and labels:
[1] = Stability testing of liver microsomes, human; type: in vitro ADME; conditions: for CLint scaled at 1 µM / half-life at 1 µM: pH 7.41, human liver microsomes
Description: (§1) 1. 100 mM K-buffer was preheated with 5 mM MgCl2 with a pH value of 7.41.
(§2) 2. Preparation of testing solution
(§3) 0.5 mM solution A: 5 μL of the 10 mM compound stock solution was added for reference to 95 μL of ACN.
(§4) 1.5 μM microsome solution (0.75 mg/mL): 1.5 μL of a 500 μM solution and 18.75 μL of 20 mg/mL liver microsomes were added to 479.75 μL of K/Mg-buffer.
(§5) 3. The K/Mg-buffer NADPH solution (6 mM, 5 mg/mL) was prepared.
(§6) 4. […] of human, monkey, and mouse liver microsomes with a 0.75 mg/mL concentration were added to detection plates at different time points (0, 15, 30, 45, and 60 minutes).
(§7) 5. Pre-incubation was conducted at 37° C. for 5 minutes.
(§8) 6. At 0 min, before 15 μL of the NADPH stock solution (6 mM) was added, 150 μL of ACN containing IS was added.
(§9) NADPH was dissolved in the K/mg buffer to prepare a 6 mm and 5 mg/mL NADPH stock solution.
(§10) 7. At other time points, 15 μL of the NADPH stock solution (6 mM) was added to the well for starting the reaction and timing.
(§11) 8. 150 μL of ACN containing IS was added to the corresponding plate wells at 15 min, 30 min, 45 min, and 60 min, respectively, and the reaction was stopped.
(§12) 9. After quenching, shaking well was conducted for 10 minutes (600 rpm), and centrifugation was conducted at 6000 rpm for 15 minutes.
(§13) 10. 80 μL of the supernatant in each well was transferred to a 96-well sample plate (containing 140 μL of pure water) for LC/MS analysis.

[2] = Stability testing of liver microsomes, monkey; type: in vitro ADME; conditions: for CLint scaled at 1 µM / half-life at 1 µM: pH 7.41, monkey liver microsomes
Description: as §1, §2, §3, §4, §5, §6, §7, §8, §9, §10, §11, §12, §13

Aurora B = Aurora B (Homo sapiens (Human), UniProt Q96GD4); assay: Activity of other kinases: Aurora B (HTRF); type: biochemical
Aurora B, sequence (Q96GD4 whole entry): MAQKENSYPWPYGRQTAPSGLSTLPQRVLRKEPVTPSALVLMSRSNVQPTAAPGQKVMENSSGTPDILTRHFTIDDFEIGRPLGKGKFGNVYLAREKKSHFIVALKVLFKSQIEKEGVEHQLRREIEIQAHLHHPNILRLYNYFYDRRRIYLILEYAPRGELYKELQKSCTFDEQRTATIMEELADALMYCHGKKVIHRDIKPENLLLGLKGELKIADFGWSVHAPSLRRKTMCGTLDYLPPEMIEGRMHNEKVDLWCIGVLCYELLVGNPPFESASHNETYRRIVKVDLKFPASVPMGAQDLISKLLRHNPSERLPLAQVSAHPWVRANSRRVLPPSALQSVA
Description: Embodiment 5 Activity of Other Kinases
(1) Preparation of 1×kinase reaction buffer:
1 time the volume of 5×kinase reaction buffer and 4 times the volume of water; 5 mM MgCl2; 1 mM DTT.
(2) Screening of Compounds:
a) The compound was diluted with DMSO in a dilution plate.
b) The compound was diluted 40 times into the 1× kinase reaction buffer and oscillated on an oscillator for 20 minutes.
c) 2× was prepared using a 1× enzyme reaction buffer.
d) 2 μL of kinase was added to each well of the reaction plate.
e) 1 μL of the compound diluted in the buffer was added to each well, and the plate was sealed with a sealing film, centrifuged at 1000 rpm for 60 seconds and incubated at 25° C. for 10 minutes.
f) A mixture of 2.5×S2 &TK-substrate-biotin and ATP was prepared using the 1× enzyme reaction buffer, and 2 μL of the S2 &TK-substrate-biotin/ATP mixture was added to the reaction plate.
G) The plate was sealed with a sealing film, centrifuged at 1000 rpm for 60 seconds and incubated at 25° C. for 50&40&30&20 minutes.
h) 4× Sa-XL 665 was prepared using an HTRF detection buffer.
i) 5 μL of Sa-XL 665 and 5 μL of STK/TK-antibody-Cryptate were added to each well, centrifugation was conducted at 1000 rpm for 60 seconds, and incubation was conducted at 25° C. for 1 hour.
j) The fluorescence signals at 615 nm (Cryptate) and 665 nm (XL665) were read using the BGM microplate reader.

[3] = Stability testing of liver microsomes, mouse; type: in vitro ADME; conditions: for CLint scaled at 1 µM / half-life at 1 µM: pH 7.41, mouse liver microsomes
Description: as §1, §2, §3, §4, §5, §6, §7, §8, §9, §10, §11, §12, §13

[4] = test system: BaF3-EGFR^L858R/C797S cells; assay: BaF3 cell proliferation inhibition experiment (CCK-8); type: cell-based; conditions: Ba/F3 EGFR-L858R, 72 h, read-out: BaF3-EGFR^L858R/C797S (IC50 nM)
[5] = test system: BaF3-EGFR^del19/C797S cells; assay: as above; type: cell-based; conditions: Mus musculus, BaF3, 72 h, read-out: BaF3-EGFR^del19 /C797S (IC50 nM)

Row | Structure (SMILES) | CLint scaled at 1 µM [1] [mL/min/kg] | half-life at 1 µM [1] [min] | CLint scaled at 1 µM [2] [mL/min/kg] | half-life at 1 µM [2] [min] | IC50 (Aurora B) [nM] | CLint scaled at 1 µM [3] [mL/min/kg] | half-life at 1 µM [3] [min] | stability in liver microsomes (in words) ([1]; humans) | IC50 [4] [nM] | IC50 [5] [nM] | stability in liver microsomes (in words) ([2]; monkeys) | stability in liver microsomes (in words) ([3]; mice)
1 | CCc1cc(Nc2ncc(Cl)c(Nc3ccc(C)c(C)c3P(C)(C)=O)n2)c(OC)cc1N1CCC(N2CCN(C)CC2)CC1 [Comparative Compound A, reference compound] | 49.8 | 27.8 | 52 | 26.7 | 2010 | 18.2 | 76.1 |  |  |  |  | 
2 | CCc1cc(Nc2ncc(Cl)c(Nc3ccc(C)c(C)c3P(C)(C)=O)n2)c(OC)cc1N1CC2(CCN(C)CC2)C1 [Compound 24, (6-((5-Chloro-2-((5-ethyl-2-methoxy-4-(7-methyl-2,7-diazaspiro[3.5]non-2-yl)phenyl)amino)pyrimidin-4-yl)amino)-2,3-dimethylphenyl)dimethylphosphine oxide] | < 9.6 | > 145 | 27.7 | 50 | 410 | < 9.6 | > 145 | good stability | 158 | 202 | good stability | good stability
3 | CCc1cc(Nc2ncc(Cl)c(Nc3ccc(C)c(C)c3P(C)(C)=O)n2)c(OC)cc1N1CCC(N2C[C@H]3CC[C@@H](C2)N3C)CC1 [Compound 51, (6-((5-chloro-2-((5-ethyl-2-methoxy-4-(4-((1R,5S)-8-methyl-3,8-diazabicyclo[3.2.1]octan-3-yl)piperidin-1-yl)phenyl)amino)pyrimidin-4-yl)amino)-2,3-dimethylphenyl)dimethylphosphine oxide] |  |  |  |  |  |  |  |  | 116 | 146 |  | 
